Experiments:
Format in all cases: cell-based, human
[1] = system: fructokinase-1 (FK-1) mRNA; test: Fructokinase-1 mRNA by RT-PCR in MCF-7 cells; conditions: MCF-7, 5 mM sugar, compared with 2 mM glucose
Method: FIG. 7 depicts fructokinase-1 expression in accordance with an embodiment of the present invention. Breast cancer cells (MCF-7) express Fructokinase-1 (FK-1). RT-PCR was used to measure fructokinase-1 (FK-1) mRNA levels in MCF-7 cells following growth in 2 mM glucose, 5.5 mM glucose, or 5.5 mM fructose for 24 h, and in two human breast cancers (BT 1 & 2), and matched adjacent normal breast tissue (NB 1 & 2) from the same individual. […] Human liver, and exclusion of template served as positive and negative controls.
The inventors used RT-PCR analysis and specific primer pairs (SEQ ID NO: 1 (3′[…]), SEQ ID NO: 2 (5′[…])) to examine fructokinase-1 (FK-1) mRNA levels in glucose- or fructose-treated breast cancer cells. […] Also examined were FK-1 mRNA levels in two surgically resected human breast cancers, and paired adjacent normal breast tissue from the same individual. FK-1 mRNA was detectable in both normal and tumor tissue.

[2] = system: MAPK pathway (pERK, pRSK, pMEK); test: Western blot of MAPK pathway in PANC-1 cells; conditions: PANC-1, 5.5 mM sugar, 48 h
Method: FIG. 23 depicts Western blot analysis examining MAPK pathway expression in accordance with an embodiment of the present invention. PANC-1 pancreatic cancer cells were incubated in 2 mM glucose, 5.5 mM glucose or 5.5 mM fructose for 48 hours, after which Western blot analysis on total protein lysates was employed to examine phosphorylated MEK (pMEK), pRSK, and pCREB, and corresponding total MEK, RSK, and CREB levels.
Several signal transduction pathways may be involved in fructose-mediated pancreatic cancer growth but given the importance of the MAPK pathway in proliferation, the inventors believed that MAPK was involved. In the MAPK pathway, MEK mediated phosphorylation of the p44/42 MAP kinase (ERK) is the first step in this cascade, which results in phosphorylation of p90^Rsk, leading to transcriptional activation of CREB, and AP1, activating gene transcription and promoting cellular growth. The inventors employed Western blot analysis to examine MAPK pathway expression in pancreatic cancer cells incubated in 2 mM glucose, 5.5 mM glucose, and 5.5 mM fructose for 48 hours. Levels of the active phosphorylated proteins, pERK, pRSK, and pMEK were normalized to total ERK, RSK, and MEK levels respectively, and compared between the fructose-, and glucose-treated PANC-1 cells.

[3] = system: proliferating cell nuclear antigen (PCNA); test: PCNA Western blot in PANC-1 cells; conditions: PANC-1, 5.5 mM sugar, 48 h, compared to 2 mM glucose
Method: FIG. 19 depicts PCNA expression in accordance with an embodiment of the present invention. PANC-1 cells were plated in 2 mM, and 5.5 mM glucose, or 5.5 mM fructose for 48 h, after which proliferating cell nuclear antigen (PCNA) levels were measured by Western blot analysis.
Additionally, protein extracts were harvested in RIPA buffer from the PANC-1 cells following 2 mM, 5.5 mM glucose-, and fructose-treatment for 48 h, analyzed by Western blot, and immunoblotted using a specific monoclonal antibody to proliferating cell nuclear antigen (PCNA).

[4] = system: ER negative MDA-MB231 breast cancer cells; test: Breast cancer cell proliferation (MTT assay), MDA-MB231
Method: Estrogen receptor (ER) positive MCF-7, and ER negative MDA-MB231 cells were plated in 5 mM fructose or glucose for times between 8-72 h, and proliferative rates measured using MTT assay. *, p<0.05; **, p<0.01.
FIG. 5 depicts fructose-mediated increased breast cancer proliferation in accordance with an embodiment of the present invention. ER positive MCF-7, and ER negative MDA-MB231 cells were plated in a range of fructose or glucose concentrations (5-25 mM) for 72 h, after which proliferative rates were measured using an MTT assay. *, p<0.05 for concentrations between 5-25 mM fructose versus glucose.
Standard media for breast cancer cell culture contain either 5-7 mM (low) and 12-25 mM (high) glucose concentrations. Estrogen receptor (ER) positive MCF-7, and ER negative MDA-MB231 cells were cultured overnight in 2 mM glucose standard DMEM medium containing 10% fetal bovine serum prior to incubation for periods between 8, and 72 hours in standard DMEM medium containing 10% fetal bovine serum, and 5 mM glucose or 5 mM fructose.
Proliferative rates were then measured in replicate (minimum of 6) aliquot wells of the breast cancer cells grown in glucose, or fructose containing medium. […] In separate experiments, proliferative rates of the MCF-7, and MDA-MB231 breast cancer cells were compared following culture in a range of fructose, and glucose concentrations (2-25 mM) for 72 hours.

O=C(CO)[C@@H](O)[C@H](O)[C@H](O)CO [fructose]
FK-1 mRNA levels (RT-PCR) [1]: highest FK-1 levels | pERK, pRSK, and pMEK expression [2]: highest pERK, pRSK, and pMEK expression | PCNA expression [3]: highest PCNA levels | proliferative rates in fructose compared to glucose ([4]; MDA-MB231, 5 mM fructose vs 5 mM glucose, 8-72 h): higher proliferative rates | proliferative rates in 5 mM fructose compared to 25 mM glucose ([4]; MDA-MB231, 72 hours, 5 mM fructose vs 5-fold higher glucose (25 mM)): higher proliferative rates

— patent US20090232735A1, “USE OF FRUCTOSE-BASED THERAPIES FOR THE TREATMENT OF CANCER” (CEDARS-SINAI MEDICAL CENTER, priority 2005, published 2009)
